Results on two compounds are retold here after the NIST ThermoML archive (doi:10.1016/j.fluid.2014.03.019).

± gives the expanded uncertainty stated by the source.

By mass density is commonly meant the mass of a sample divided by its volume. What is called refractive index is the speed of light in vacuum divided by its phase velocity in the sample.

A short description of data set [1]: wn = mass fraction of the nth substance listed. The note with it: Liquid, Vibrating tube method.
A short description of data set [2]: refractive index (Na D-line) (dimensionless); wn = mass fraction of the nth substance listed. The note with it: Liquid, Standard Abbe refractometry.

With `O=B[O-].[Li+]` [lithium metaborate] + O, the mass density came to 1023.17 ± 0.34 kg/m3 in data set [1] (288.15 K, w1 = 0.0187) and 1035.63 ± 0.26 kg/m3 in data set [1] (298.15 K, w1 = 0.0336). For the same compound, the refractive index stood at 1.341 ± 0.0005 in data set [2] (288.15 K, w1 = 0.0187) and 1.3452 ± 0.0004 in data set [2] (298.15 K, w1 = 0.0336).
With `O=S(=O)([O-])[O-].[Li+].[Li+]` [lithium sulfate] + O, the mass density in data set [1] (288.15 K, w1 = 0.2596) amounted to 1246.65 ± 1.8 kg/m3; in data set [1] (298.15 K, w1 = 0.2561) it was 1245.02 ± 2.7 kg/m3. In addition, the refractive index in data set [2] (288.15 K, w1 = 0.2596) came to 1.3788 ± 0.0005; in data set [2] (298.15 K, w1 = 0.2561), 1.3771 ± 0.0006.
